How the values were obtained:
Assay type in all cases: cell-based
[1] = molecular target: EP2 subtype of the human PGE2 receptor (Homo sapiens, UniProt P43116); test: cAMP antagonism test on the human EP2 receptor (HTRF cAMP detection); details: hEP2 receptor, read-out: Antagonism hEP2 IC50
Procedure, shortened: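 Read-out is a competitive HTRF for cAMP: lysate cAMP displaces cAMP-d2 from Eu cryptate-labelled antibody, and antagonism raises the 665/620 nm ratio. Compound (0.8 nM–16.5 μM) added to EP2 cells 20 min at RT before 60 min PGE2 challenge (3× stock 1.5 nM) with IBMX, followed by 20 min lysis.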

[2] = molecular target: EP4 subtype of the human PGE2 receptor (Homo sapiens, UniProt P35408); test: cAMP antagonism test on the human EP4 receptor (HTRF cAMP detection); details: selectivity towards hEP4, IC50 measured by cAMP antagonism test
Procedure, shortened: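 Competitive HTRF cAMP read-out (cAMP-d2 vs Eu-cryptate anti-cAMP antibody, 665/620 nm ratio) on lysed human EP4 cells. Compound (0.8 nM–16.5 μM) applied 20 min at RT before 60 min PGE2 challenge (3× solution 0.3 nM, IBMX present); 20 min lysis precedes reading.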

human PGD receptor = molecular target: T1, human PGD receptor (Homo sapiens, UniProt Q13258); test: cAMP antagonism test on the human prostaglandin D receptor (HTRF cAMP detection); details: selectivity towards hDP, IC50 measured by cAMP antagonism test
T1 sequence (Q13258 1-359): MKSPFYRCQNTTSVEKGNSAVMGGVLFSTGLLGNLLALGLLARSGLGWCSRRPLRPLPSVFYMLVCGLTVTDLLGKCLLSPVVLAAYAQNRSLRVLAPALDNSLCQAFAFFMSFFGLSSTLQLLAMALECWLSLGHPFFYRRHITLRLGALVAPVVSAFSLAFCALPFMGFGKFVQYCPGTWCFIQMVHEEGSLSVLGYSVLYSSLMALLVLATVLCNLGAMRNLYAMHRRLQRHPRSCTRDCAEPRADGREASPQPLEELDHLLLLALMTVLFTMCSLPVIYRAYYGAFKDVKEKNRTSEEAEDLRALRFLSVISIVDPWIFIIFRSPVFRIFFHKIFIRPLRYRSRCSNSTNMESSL
Procedure, shortened: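 HTRF competition read-out (665/620 nm ratio ×10000), where higher FRET means less cAMP, i.e. antagonism. Compounds (0.8 nM–16.5 μM) were preincubated 20 min at RT with cells and cAMP-d2, PGD2 (3× solution, 6 nM) in IBMX-containing PBS added for 30 min at RT, then cells lysed 20 min.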

Chain of EP4 subtype of the human PGE2 receptor (P35408 whole entry): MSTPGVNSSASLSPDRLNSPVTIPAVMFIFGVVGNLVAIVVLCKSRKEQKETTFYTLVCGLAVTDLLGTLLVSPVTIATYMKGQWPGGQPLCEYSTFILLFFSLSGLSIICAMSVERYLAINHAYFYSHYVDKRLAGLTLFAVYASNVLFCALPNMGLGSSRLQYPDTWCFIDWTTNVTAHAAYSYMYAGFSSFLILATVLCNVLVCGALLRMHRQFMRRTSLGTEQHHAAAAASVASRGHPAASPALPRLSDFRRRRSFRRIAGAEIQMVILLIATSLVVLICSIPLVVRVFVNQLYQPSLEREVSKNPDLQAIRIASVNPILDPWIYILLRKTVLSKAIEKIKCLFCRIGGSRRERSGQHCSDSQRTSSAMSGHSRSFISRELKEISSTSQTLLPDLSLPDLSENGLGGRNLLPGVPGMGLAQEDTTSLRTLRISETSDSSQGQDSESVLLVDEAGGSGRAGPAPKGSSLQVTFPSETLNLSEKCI
Chain of EP2 subtype of the human PGE2 receptor (P43116 whole entry): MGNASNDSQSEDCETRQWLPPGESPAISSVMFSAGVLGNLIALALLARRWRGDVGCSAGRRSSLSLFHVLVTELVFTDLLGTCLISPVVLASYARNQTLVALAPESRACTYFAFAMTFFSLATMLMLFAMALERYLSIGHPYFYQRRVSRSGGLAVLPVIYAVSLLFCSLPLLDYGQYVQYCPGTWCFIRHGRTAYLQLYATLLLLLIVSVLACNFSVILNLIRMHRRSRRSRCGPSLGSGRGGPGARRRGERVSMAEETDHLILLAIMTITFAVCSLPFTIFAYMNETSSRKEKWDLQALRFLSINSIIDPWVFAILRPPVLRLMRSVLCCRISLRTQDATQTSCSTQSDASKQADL

IC50 [1] [nM] | Selectivity hEP2/hEP4 [2] | Selectivity hEP2/hDP (human PGD receptor) | Structure (SMILES)
51.9 | xxx (xxx > 100) | xxx (xxx > 100) | COCCNC(=O)c1cc2cn(CC3CN(C(=O)c4ccc(C(F)(F)F)cc4)C3)nc2cc1C [Example 186, N-(2-methoxyethyl)-6-methyl-2-({1-[4-(trifluoromethyl)benzoyl]azetidin-3-yl}methyl)-2H-indazol-5-carboxamide]
33.4 | xxx (xxx > 100) | xxx (xxx > 100) | Cc1c(C(=O)NCC(F)(F)F)ccc2nn(CC3CN(C(=O)c4ccc(Oc5ccc(Cl)cc5)cc4)C3)cc12 [Example 165, 2-({1-[4-(4-chlorophenoxy)benzoyl]azetidin-3-yl}methyl)-4-methyl-N-(2,2,2-trifluoroethyl)-2H-indazol-5-carboxamide]
11.5 | xxx (xxx > 100) | xxx (xxx > 100) | Cc1c(C(=O)NCCOCC(F)(F)F)ccc2nn(CC3CCN(C(=O)c4ccc(C(F)(F)F)cc4)CC3)cc12 [Example 93, 4-methyl-N-[2-(2,2,2-trifluoro-ethoxy)ethyl]-2-({1-[4-(trifluoro-methyl)benzoyl]-piperidin-4-yl}-methyl)-2H-indazol-5-carboxamide]
89.4 | xxx (xxx > 100) | xxx (xxx > 100) | Cc1c(C(=O)NCC(F)(F)F)ccc2nn(CC3CCN(C(=O)c4ccc(Oc5ccc(F)cc5F)cc4)CC3)cc12 [Example 313, 2-({1-[4-(2,4-difluorophenoxy)benzoyl]piperidin-4-yl}methyl)-4-methyl-N-(2,2,2-trifluoroethyl)-2H-indazol-5-carboxamide]
1440 | xx (xx: 10-100) | xx (xx: 10-100) | Cc1c(C(=O)NCCN2CCOCC2)ccc2nn(CC3CCN(C(=O)c4ccc(C(F)(F)F)cc4)CC3)cc12 [Example 63, 4-methyl-N-(2-morpholinoethyl)-2-({1-[4-(trifluoromethyl)benzoyl]piperidin-4-yl}methyl)-2H-indazol-5-carboxamide]
76.6 | xxx (xxx > 100) | xxx (xxx > 100) | Cc1c(C(=O)NCC(F)(F)F)ccc2nn(CC3CCN(C(=O)c4ccc(Oc5ccc(C#N)cc5)cc4)CC3)cc12 [Example 306, 2-({1-[4-(4-cyanophenoxy)benzoyl]piperidin-4-yl}methyl)-4-methyl-N-(2,2,2-trifluoroethyl)-2H-indazol-5-carboxamide]
50.2 | xxx (xxx > 100) | xxx (xxx > 100) | COCCNC(=O)c1ccc2nn(CC3CCN(C(=O)c4ccc(OC5CCOCC5)cc4)CC3)cc2c1C [Example 353, N-(2-methoxyethyl)-4-methyl-2-({1-[4-(3,4,5,6-tetrahydro-2H-pyran-4-yloxy)-benzoyl]piperidin-4-yl}methyl)-2H-indazol-5-carboxamide]
80.8 | xxx (xxx > 100) | xxx (xxx > 100) | Cc1c(C(=O)NCC(C)OC2CCC2)ccc2nn(CC3CN(C(=O)c4ccc(Cl)cc4)C3)cc12 (racemic) [Example 154, (+/−)-2-{[1-(4-chlorobenzoyl)azetidin-3-yl]methyl}-N-[2-(cyclobutyloxy)propyl]-4-methyl-2H-indazol-5-carboxamide]
18 | xxx (xxx > 100) | xxx (xxx > 100) | Cc1c(C(=O)NCCS(C)(=O)=O)ccc2nn(CC3CCN(C(=O)c4ccc(Oc5ccc(C(F)(F)F)cn5)cc4)CC3)cc12 [Example 396, N-(2-mesylethyl)-4-methyl-2-{[1-(4-{[5-(trifluoromethyl)pyridin-2-yl]oxy}-benzoyl)piperidin-4-yl]methyl}-2H-indazol-5-carboxamide]
10.9 | xxx (xxx > 100) | xxx (xxx > 100) | Cc1c(C(=O)NCC2COCCO2)ccc2nn(CC3CCN(C(=O)c4ccc(Oc5ccc(C(F)(F)F)cc5)cc4)CC3)cc12 (single isomer, unassigned) [Example 419, (R or S)—N-(1,4-dioxan-2-ylmethyl)-4-methyl-2-[(1-{4-[4-(trifluoromethyl)-phenoxy]benzoyl}piperidin-4-yl)methyl]-2H-indazol-5-carboxamide]
7.33 | xxx (xxx > 100) | xxx (xxx > 100) | COCCNC(=O)c1ccc2nn(CC3CCN(C(=O)c4ccc(C5CC5)cc4)CC3)cc2c1C [Example 20, 2-{[1-(4-cyclopropyl-benzoyl)piperidin-4-yl]methyl}-N-(2-methoxyethyl)-4-methyl-2H-indazol-5-carboxamide]
3810 | x (x: 1-10) | x (x: 1-10) | Cc1c(C(=O)NCC(C)(C)C)ccc2nn(CC3CCN(C(=O)c4ccc(Cl)cc4)CC3)cc12 [Example 251, 2-{[1-(4-chlorobenzoyl)piperidin-4-yl]methyl}-N-(2,2-dimethylpropyl)-4-methyl-2H-indazol-5-carboxamide]
273 | xx (xx: 10-100) | xx (xx: 10-100) | COCCNC(=O)c1ccc2nn(C[C@@H]3CCN(C(=O)c4ccc(S(F)(F)(F)(F)F)cc4)C3)cc2c1C [Example 219, N-(2-methoxyethyl)-4-methyl-2-({(3R)-1-[4-(pentafluoro-λ^6-sulphanyl)benzoyl]-pyrrolidin-3-yl}methyl)-2H-indazol-5-carboxamide]
29.6 | xxx (xxx > 100) | xxx (xxx > 100) | Cc1c(C(=O)NCCOCC2CC2)ccc2nn(CC3CN(C(=O)c4ccc(Cl)cc4)C3)cc12 [Example 149, 2-{[1-(4-chlorobenzoyl)azetidin-3-yl]methyl}-N-[2-(cyclopropylmethoxy)ethyl]-4-methyl-2H-indazol-5-carboxamide]
175 | xx (xx: 10-100) | xx (xx: 10-100) | Cc1c(C(=O)NCCN2CCOCC2)ccc2nn(CC3CCN(C(=O)c4ccc(S(F)(F)(F)(F)F)cc4)CC3)cc12 [Example 60, 4-methyl-N-(2-morpholinoethyl)-2-({1-[4-(pentafluoro-λ^6-sulphanyl)benzoyl]-piperidin-4-yl}methyl)-2H-indazol-5-carboxamide]
13.1 | xxx (xxx > 100) | xxx (xxx > 100) | COCCNC(=O)c1ccc2nn(CC3CCN(C(=O)c4ccc(-c5cncc(Cl)c5)cc4)CC3)cc2c1C [Example 385, 2-({1-[4-(5-chloropyridin-3-yl)benzoyl]piperidin-4-yl}methyl)-N-(2-methoxy-ethyl)-4-methyl-2H-indazol-5-carboxamide]
184 | xx (xx: 10-100) | xx (xx: 10-100) | Cc1c(C(=O)NCC(C)OC2CCC2)ccc2nn(CC3CN(C(=O)c4ccc(Cl)cc4)C3)cc12 (single isomer, unassigned) [Example 156, (R or S)-2-{[1-(4-chlorobenzoyl)azetidin-3-yl]methyl}-N-[2-(cyclobutyloxy)-propyl]-4-methyl-2H-indazol-5-carboxamide]
103 | xxx (xxx > 100) | xxx (xxx > 100) | COCCNC(=O)c1ccc2nn(CC3CCN(C(=O)c4ccc(C#N)cc4F)CC3)cc2c1C [Example 1, 2-{[1-(4-cyano-2-fluorobenzoyl)piperidin-4-yl]methyl}-N-(2-methoxyethyl)-4-methyl-2H-indazol-5-carboxamide]
285 | xx (xx: 10-100) | xx (xx: 10-100) | Cc1c(C(=O)NCC(C)OCC2CC2)ccc2nn(CC3CCN(C(=O)c4ccc(-c5ccc(F)cc5)cc4)CC3)cc12 (racemic) [Example 105, (+/−)-N-[2-(cyclo-propylmethoxy)-propyl]-2-({l-[(4′-fluorobiphenyl-4-yl)carbonyl]-piperidin-4-yl}-methyl)-4-methyl-2H-indazol-5-carboxamide]

Structure (SMILES) | IC50 [1] [nM] | Selectivity hEP2/hEP4 [2] | Selectivity hEP2/hDP (human PGD receptor)
Cc1c(C(=O)NCCOC(C)(C)C)ccc2nn(CC3CCN(C(=O)c4ccc(Oc5ccc(C(F)(F)F)cc5)cc4)CC3)cc12 [Example 114, N-(2-tert-butoxyethyl)-4-methyl-2-[(1-{4-[4-(trifluoromethyl)-phenoxy]benzoyl}-piperidin-4-yl)methyl]-2H-indazol-5-carboxamide] | 6.08 | xxx (xxx > 100) | xxx (xxx > 100)

— patent US9062041B2 (Bayer Intellectual Property GmbH, priority 2011, dated 2015)
